In the NIST ThermoML archive (doi:10.1016/j.jct.2006.02.005):
Several values for one entry are separate records, joined by “and”; a condition that tells them apart may be missing. Equal values may be shown once.

Tests used:
[1] = Molar enthalpy of transition or fusion
[2] = for Normal melting temperature: Crystal 1; for Triple point temperature: Crystal 2
[3] = molar heat capacity at constant pressure; details: 101.33 kPa

NC(CO)(CO)CO [2-amino-2-(hydroxymethyl)-1,3-propanediol]
[1]
Details	Molar enthalpy of transition or fusion [kcal/mol]
Crystal 1	0.742
Crystal 2	8

[2]
Details	Normal melting temperature [°C]	Triple point temperature [K]
–	171.42	409.2

[3]
Details	molar heat capacity at constant pressure
193.15 K, Crystal 2	122.47 J/K/mol and 125.13 J/K/mol and 118.14 J/K/mol
198.15 K, Crystal 2	123.8 J/K/mol and 126.58 J/K/mol and 119.34 J/K/mol
203.15 K, Crystal 2	124.41 J/K/mol and 128.03 J/K/mol and 119.97 J/K/mol
208.15 K, Crystal 2	130.34 J/K/mol and 121.62 J/K/mol and 126.22 J/K/mol
213.15 K, Crystal 2	128.53 J/K/mol and 132.76 J/K/mol and 124.17 J/K/mol
218.15 K, Crystal 2	130.83 J/K/mol and 135.3 J/K/mol and 125.62 J/K/mol
223.15 K, Crystal 2	133.13 J/K/mol and 137.12 J/K/mol and 127.31 J/K/mol
228.15 K, Crystal 2	135.31 J/K/mol and 138.33 J/K/mol and 129.5 J/K/mol
233.15 K, Crystal 2	131.07 J/K/mol and 137.49 J/K/mol and 140.87 J/K/mol
238.15 K, Crystal 2	133.61 J/K/mol and 139.67 J/K/mol and 143.78 J/K/mol
243.15 K, Crystal 2	139.07 J/K/mol and 142.09 J/K/mol and 145.84 J/K/mol
248.15 K, Crystal 2	143.18 J/K/mol and 144.27 J/K/mol and 148.75 J/K/mol
253.15 K, Crystal 2	144.76 J/K/mol and 146.7 J/K/mol and 151.05 J/K/mol
258.15 K, Crystal 2	146.82 J/K/mol and 149.24 J/K/mol and 153.23 J/K/mol
263.15 K, Crystal 2	150.82 J/K/mol and 152.03 J/K/mol and 155.65 J/K/mol
268.15 K, Crystal 2	154.81 J/K/mol and 154.69 J/K/mol and 158.07 J/K/mol
273.15 K, Crystal 2	156.87 J/K/mol and 156.99 J/K/mol and 160.74 J/K/mol
278.15 K, Crystal 2	157.96 J/K/mol and 159.66 J/K/mol and 163.65 J/K/mol
283.15 K, Crystal 2	160.99 J/K/mol and 162.69 J/K/mol and 166.8 J/K/mol
288.15 K, Crystal 2	163.78 J/K/mol and 165.84 J/K/mol and 169.46 J/K/mol
293.15 K, Crystal 2	166.32 J/K/mol and 169.11 J/K/mol and 171.4 J/K/mol
298.15 K, Crystal 2	169.83 J/K/mol and 171.89 J/K/mol and 174.79 J/K/mol
303.15 K, Crystal 2	172.14 J/K/mol and 174.44 J/K/mol and 179.03 J/K/mol
308.15 K, Crystal 2	173.95 J/K/mol and 177.34 J/K/mol and 182.3 J/K/mol
313.15 K, Crystal 2	175.89 J/K/mol and 180.01 J/K/mol and 185.33 J/K/mol
318.15 K, Crystal 2	180.37 J/K/mol and 182.55 J/K/mol and 188.36 J/K/mol
323.15 K, Crystal 2	185.82 J/K/mol and 185.1 J/K/mol and 191.63 J/K/mol
328.15 K, Crystal 2	189.46 J/K/mol and 187.4 J/K/mol and 194.41 J/K/mol
333.15 K, Crystal 2	192 J/K/mol and 189.82 J/K/mol and 197.08 J/K/mol
338.15 K, Crystal 2	195.52 J/K/mol and 192.24 J/K/mol and 200.35 J/K/mol
343.15 K, Crystal 2	198.06 J/K/mol and 194.3 J/K/mol and 203.14 J/K/mol
348.15 K, Crystal 2	200.6 J/K/mol and 196.97 J/K/mol and 206.04 J/K/mol
353.15 K, Crystal 2	203.15 J/K/mol and 199.15 J/K/mol and 209.19 J/K/mol
358.15 K, Crystal 2	201.94 J/K/mol and 211.86 J/K/mol and 205.93 J/K/mol
363.15 K, Crystal 2	209.93 J/K/mol and 203.99 J/K/mol and 214.4 J/K/mol
368.15 K, Crystal 2	212.96 J/K/mol and 206.78 J/K/mol and 217.31 J/K/mol
373.15 K, Crystal 2	215.26 J/K/mol and 209.45 J/K/mol and 219.61 J/K/mol
378.15 K, Crystal 2	218.17 J/K/mol and 212.35 J/K/mol and 222.64 J/K/mol
383.15 K, Crystal 2	221.8 J/K/mol and 214.9 J/K/mol and 226.15 J/K/mol
388.15 K, Crystal 2	227.37 J/K/mol and 217.93 J/K/mol and 229.78 J/K/mol
393.15 K, Crystal 2	229.31 J/K/mol and 221.32 J/K/mol and 233.54 J/K/mol
398.15 K, Crystal 2	234.28 J/K/mol and 225.68 J/K/mol and 237.9 J/K/mol
423.15 K, Crystal 1	367.05 J/K/mol and 386.4 J/K/mol and 376.37 J/K/mol
428.15 K, Crystal 1	368.14 J/K/mol and 390.4 J/K/mol and 378.19 J/K/mol
433.15 K, Crystal 1	369.95 J/K/mol and 393.79 J/K/mol and 383.04 J/K/mol
438.15 K, Crystal 1	396.7 J/K/mol and 389.58 J/K/mol and 371.65 J/K/mol
453.15 K, Liquid	395.39 J/K/mol
458.15 K, Liquid	396.6 J/K/mol
463.15 K, Liquid	398.06 J/K/mol
468.15 K, Liquid	400.36 J/K/mol
473.15 K, Liquid	400.72 J/K/mol

CC(N)(CO)CO [2-amino-2-methyl-1,3-propanediol]
[1]
Details	Molar enthalpy of transition or fusion [kcal/mol]
Crystal 1	0.658
Crystal 2	5.63

[2]
Details	Normal melting temperature [°C]	Triple point temperature [K]
–	110.93	355.66

[3]
Details	molar heat capacity at constant pressure
193.15 K, Crystal 3	118.91 J/K/mol and 107.45 J/K/mol and 121.86 J/K/mol
198.15 K, Crystal 3	121.86 J/K/mol and 119.23 J/K/mol and 108.93 J/K/mol
203.15 K, Crystal 3	123.22 J/K/mol and 119.86 J/K/mol and 110.29 J/K/mol
208.15 K, Crystal 3	119.54 J/K/mol and 111.13 J/K/mol and 124.91 J/K/mol
213.15 K, Crystal 3	126.27 J/K/mol and 119.96 J/K/mol and 112.18 J/K/mol
218.15 K, Crystal 3	127.85 J/K/mol and 121.12 J/K/mol and 113.66 J/K/mol
223.15 K, Crystal 3	129.11 J/K/mol and 122.28 J/K/mol and 115.97 J/K/mol
228.15 K, Crystal 3	130.37 J/K/mol and 123.22 J/K/mol and 118.39 J/K/mol
233.15 K, Crystal 3	132.06 J/K/mol and 124.17 J/K/mol and 121.02 J/K/mol
238.15 K, Crystal 3	133.84 J/K/mol and 125.85 J/K/mol and 124.17 J/K/mol
243.15 K, Crystal 3	135 J/K/mol and 129.32 J/K/mol and 126.8 J/K/mol
248.15 K, Crystal 3	136.37 J/K/mol and 130.9 J/K/mol and 128.8 J/K/mol
253.15 K, Crystal 3	130.69 J/K/mol and 135.32 J/K/mol and 132.16 J/K/mol
258.15 K, Crystal 3	131.32 J/K/mol and 134.05 J/K/mol and 134.16 J/K/mol
263.15 K, Crystal 3	133 J/K/mol and 134.05 J/K/mol and 136.37 J/K/mol
268.15 K, Crystal 3	134.16 J/K/mol and 135.84 J/K/mol and 137.52 J/K/mol
273.15 K, Crystal 3	134.58 J/K/mol and 137.42 J/K/mol and 138.78 J/K/mol
278.15 K, Crystal 3	136.79 J/K/mol and 139.1 J/K/mol and 140.47 J/K/mol
283.15 K, Crystal 3	139.63 J/K/mol and 140.68 J/K/mol and 142.67 J/K/mol
288.15 K, Crystal 3	142.04 J/K/mol and 143.83 J/K/mol
293.15 K, Crystal 3	143.62 J/K/mol and 144.46 J/K/mol and 145.83 J/K/mol
298.15 K, Crystal 3	145.62 J/K/mol and 146.46 J/K/mol and 148.25 J/K/mol
303.15 K, Crystal 3	147.51 J/K/mol and 148.46 J/K/mol and 151.61 J/K/mol
308.15 K, Crystal 3	148.88 J/K/mol and 150.03 J/K/mol and 153.82 J/K/mol
313.15 K, Crystal 3	150.67 J/K/mol and 151.82 J/K/mol and 154.56 J/K/mol
318.15 K, Crystal 3	151.51 J/K/mol and 154.35 J/K/mol and 155.5 J/K/mol
323.15 K, Crystal 3	152.66 J/K/mol and 156.87 J/K/mol and 158.97 J/K/mol
328.15 K, Crystal 3	154.98 J/K/mol and 159.5 J/K/mol and 164.54 J/K/mol
333.15 K, Crystal 3	157.6 J/K/mol and 162.34 J/K/mol and 168.33 J/K/mol
338.15 K, Crystal 3	160.02 J/K/mol and 165.49 J/K/mol and 171.9 J/K/mol
343.15 K, Crystal 3	163.07 J/K/mol and 168.33 J/K/mol and 176.74 J/K/mol
348.15 K, Crystal 3	186.94 J/K/mol and 175.58 J/K/mol and 198.92 J/K/mol
368.15 K, Crystal 1	297.97 J/K/mol and 303.43 J/K/mol and 287.35 J/K/mol
373.15 K, Crystal 1	299.96 J/K/mol and 302.7 J/K/mol and 289.98 J/K/mol
378.15 K, Crystal 1	306.17 J/K/mol and 309.95 J/K/mol and 295.76 J/K/mol
393.15 K, Liquid	322.67 J/K/mol and 320.57 J/K/mol and 328.56 J/K/mol
398.15 K, Liquid	327.41 J/K/mol and 323.41 J/K/mol and 339.71 J/K/mol
403.15 K, Liquid	331.72 J/K/mol and 325.62 J/K/mol and 352.43 J/K/mol
408.15 K, Liquid	327.83 J/K/mol and 335.19 J/K/mol
413.15 K, Liquid	330.03 J/K/mol
